Reference: US11446287B2, “Compounds and methods for EP300 or CBP modulation and indications therefor” (Opna Immuno-Oncology SA, priority 2019, dated 2022)

biological target: T1, Recombinant human CBP containing the bromodomain (CBP-BD (1043-1159)) (Homo sapiens, UniProt Q92793); assay: CBP Alphascreen binding assay; settings: read-out: CREBBP (CBP) IC50
T1 construct: Recombinant human CBP bromodomain (CBP-BD (1043-1159)); made in house; host or cells: E. coli BL21-CodonPlus (DE3), modified pET vector
Summary of the method: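 Buffer: 50 mM HEPES pH 7.5, 50 mM NaCl, 0.01% BSA, 0.01% Triton X-100, 2 mM DTT. The signal was normalised to plate controls and fitted with a four-parameter curve to give IC50.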

T1 sequence (Q92793 1081-1197): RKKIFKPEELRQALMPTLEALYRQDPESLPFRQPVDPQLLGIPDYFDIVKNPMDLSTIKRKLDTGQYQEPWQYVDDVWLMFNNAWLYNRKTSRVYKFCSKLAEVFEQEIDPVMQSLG

Row | Structure (SMILES) | IC50
1 | CCOc1c(F)c(C(=O)O)c(F)c(OCC)c1-c1cn(-c2ccc(F)cc2F)c2ncc(-c3c(C)noc3C)cc12 [P-0296, 4-(1-(2,4-difluorophenyl)-5-(3,5-dimethylisoxazol-4-yl)-1H-pyrrolo[2,3-b]pyridin-3-yl)-3,5-diethoxy-2,6-difluorobenzoic acid] | 0.1 to 1000 nM
2 | CCOc1cc(C(=O)O)c(F)c(OCC)c1-c1cn(-c2ccc(F)cc2F)c2ncc(-c3c(C)noc3C)cc12 [P-0297, 4-(1-(2,4-difluorophenyl)-5-(3,5-dimethylisoxazol-4-yl)-1H-pyrrolo[2,3-b]pyridin-3-yl)-3,5-diethoxy-2-fluorobenzoic acid] | 0.1 to 1000 nM
3 | Cc1noc(C)c1-c1cnc2c(-c3ccccc3)cn(-c3c(OCC(F)(F)F)cc(C(=O)O)cc3OCC(F)(F)F)c2c1 [P-0298, 4-(6-(3,5-dimethylisoxazol-4-yl)-3-phenyl-1H-pyrrolo[3,2-b]pyridin-1-yl)-3,5-bis(2,2,2-trifluoroethoxy)benzoic acid] | 0.1 to 1000 nM
4 | Cc1noc(C)c1-c1cnc2c(c1)c(-c1ccc(C(=O)O)cc1OC(C)C)cn2-c1cnn(CC(C)(C)O)c1 [P-0299, 4-(5-(3,5-dimethylisoxazol-4-yl)-1-(1-(2-hydroxy-2-methylpropyl)-1H-pyrazol-4-yl)-1H-pyrrolo[2,3-b]pyridin-3-yl)-3-isopropoxybenzoic acid] | 0.1 to 1000 nM
5 | Cc1noc(C)c1-c1cnc2c(c1)c(-c1ccc(C(=O)O)cc1OC(C)C)cn2-c1cnc(N2CCC2)nc1 [P-0300, 4-(1-(2-(azetidin-1-yl)pyrimidin-5-yl)-5-(3,5-dimethylisoxazol-4-yl)-1H-pyrrolo[2,3-b]pyridin-3-yl)-3-isopropoxybenzoic acid] | 0.1 to 1000 nM
6 | Cc1noc(C)c1-c1cnc2c(c1)c(-c1ccc(C(=O)O)cc1OC(C)C)cn2[C@H]1CCOC1 [P-0301, (S)-4-(5-(3,5-dimethylisoxazol-4-yl)-1-(tetrahydrofuran-3-yl)-1H-pyrrolo[2,3-b]pyridin-3-yl)-3-isopropoxybenzoic acid] | 0.1 to 1000 nM
7 | Cc1noc(C)c1-c1cnc2c(c1)c(-c1ccc(S(C)(=O)=O)cc1OC(C)C)cn2-c1ccccc1 [P-0302, 4-(3-(2-isopropoxy-4-(methylsulfonyl)phenyl)-1-phenyl-1H-pyrrolo[2,3-b]pyridin-5-yl)-3,5-dimethylisoxazole] | 0.1 to 1000 nM
8 | CCCn1nc(C(=O)O)c(N)c1-c1cn(-c2ccc(F)cc2F)c2ncc(-c3c(C)noc3C)cc12 [P-0303, 4-amino-5-(1-(2,4-difluorophenyl)-5-(3,5-dimethylisoxazol-4-yl)-1H-pyrrolo[2,3-b]pyridin-3-yl)-1-propyl-1H-pyrazole-3-carboxylic acid] | 0.1 to 1000 nM
9 | CCCn1nc(C(=O)O)c(NCC)c1-c1cn(-c2ccc(F)cc2F)c2ncc(-c3c(C)noc3C)cc12 [P-0304, 5-(1-(2,4-difluorophenyl)-5-(3,5-dimethylisoxazol-4-yl)-1H-pyrrolo[2,3-b]pyridin-3-yl)-4-(ethylamino)-1-propyl-1H-pyrazole-3-carboxylic acid] | 0.1 to 1000 nM
10 | Cc1nnn(C)c1-c1cnc2c(c1)c(-c1ccc(C(=O)O)cc1OC(F)(F)F)cn2CC/C=C/C1CC1 [P-0305, (E)-4-(1-(4-cyclopropylbut-3-en-1-yl)-5-(1,4-dimethyl-1H-1,2,3-triazol-5-yl)-1H-pyrrolo[2,3-b]pyridin-3-yl)-3-(trifluoromethoxy)benzoic acid] | 0.1 to 1000 nM
11 | Cc1noc(C)c1-c1cnc2c(c1)c(-c1ccc(C(=O)O)cc1OCC(F)F)cn2-c1ccncc1Cl [P-0306, 4-(1-(3-chloropyridin-4-yl)-5-(3,5-dimethylisoxazol-4-yl)-1H-pyrrolo[2,3-b]pyridin-3-yl)-3-(2,2-difluoroethoxy)benzoic acid] | 0.1 to 1000 nM
12 | Cc1noc(C)c1-c1cnc2c(c1)c(-c1ccc(C(=O)O)cc1OC(F)(F)F)cn2-c1ccccc1Cl [P-0307, 4-(1-(2-chlorophenyl)-5-(3,5-dimethylisoxazol-4-yl)-1H-pyrrolo[2,3-b]pyridin-3-yl)-3-(trifluoromethoxy)benzoic acid] | 0.1 to 1000 nM
